Measured values: patent US11160766B2, “Peritoneal therapeutic fluid” (OPTERION Health AG, priority 2015, dated 2021)
“And” between values parts separate entries of the source, which are not always exact repeats. Equal entries are not always repeated.

Columns and labels:
[1] = test system: Human peritoneal mesothelial cells (HPMC); test: resazurin cell viability assay on HPMC exposed to PD solutions; format: cell-based; conditions: for type of dialysis solution mainly improved: summary of example 4; for effect on cell viability in control medium: Medium control without cytotoxic stress, until Cmax (500 μM); for effect reducing cyto-toxicity of all three tested peritoneal dialysis solutions: Example 2 conclusion, PD solutions #1 to #3; for cell viability on Glucose based and on Icodextrin based PD-Solutions: summary of examples 1 to 4; for improvement of viability of HPMC cells (resazurin to resorufin conversion): Example 3, added 5 minutes in advance, triplicate
Method: (§1) Human peritoneal mesothelial cells (HPMC) were purchased from Zen Bio Inc. and cultured in cell culture flasks using suppliers media. Near confluent HPMC were harvested by trypsinization, seeded into collagen-coated 96-well tissue culture plates (Corning) and allowed to adhere overnight. The medium was changed to twice diluted with dialysis solution for 48 up to 72 hours.
Cell viability was established applying the promega resazurin assay, following the suppliers protocol. Living cells are metabolically active and are able to reduce the non-fluorescent dye resazurin to the strongly-fluorescent dye resorufin. The fluorescence output is proportional to the number of viable cells over a wide concentration range. This also allows the calculation of the proliferation rate for cells capable of consecutive cell division. […] For the dose-response relationship, relative viability was plotted against the test item concentrations.
All assays were conducted in a duplex format using the same cell culture.
Addition of selected BCAs of this invention partially reestablished reszurin to reorufin conversion, which is interpreted as a result of a decreased cytotoxicity, due to the application of the tested BCAs. Compounds were added at 9 dilutions (Cmax=500 μM) together with tested PD solutions or Medium control. Incubation was 48 hours.
Addition of selected BCA resveratrol partially reestablished resazurin to reorufin conversion, in a triplicate assay, which is interpreted as a result of a decreased cytotoxicity, due to the application of the tested BCA. In this series, Resveratrol was added 5 minutes in advance to application of test-solutions, at 9 dilutions (Cmax=500 μM). Incubation was 72 hours.
partially reestablished resazurin to reorufin conversion, or partly re-established intracellular ATP-level, which is interpreted as a result of a decreased cytotoxicity, due to the application of the tested BCA. Test items were tested at 3 replicates per concentration. All assays were conducted in a duplex format using the same cell culture. Incubation was 72 hours.

[2] = test system: Human peritoneal mesothelial cells (HPMC); test: CTG assay, intra-cellular ATP level in HPMC exposed to PD solution; format: cell-based; conditions: Example 4; PD-Solution #4; 72 hours
Method: as §1
In the case of Piceid, the intra-cellular ATP level was determined with the CTG assay. For this, media was completely removed from all wells by aspiration, 60 μl of CTG reagent was added to each well, and incubated for 5 min at RT while softly shaking (50 rpm). Using a Victor3 1420 Multilabel Counter, the emitted luminescence produced in the CTG assay was measured. For the dose-response relationship, absolute luminescence (background subtracted) was related to the negative (medium) control and relative viability values were plotted against the test item concentrations. For the dose-response relationship, absolute luminescence (background subtracted) was related to the negative (medium) control and relative viability values in presence of BCA were plotted against the BCA concentrations.
partially reestablished resazurin to reorufin conversion, or partly re-established intracellular ATP-level, which is interpreted as a result of a decreased cytotoxicity, due to the application of the tested BCA. […]

VEGF = test: peritoneal tissue VEGF (ELISA) in rats after chronic peritoneal dialysis; format: in vivo, Sprague-Dawley rats; conditions: for VEGF concentration (pg/mL) in prot. prep., single animals: peritoneal tissue
Method: Animal Studies have been carried out as described in Lee et al. 2012: Peritoneal access ports were inserted in male Sprague-Dawley rats. After one week, rats started to received peritoneal treatment: 10 rats receive once daily 20 ml of Sol #4, 10 rats received 20 ml of Sol #4 with addition of selected BCA (resveratrol), during 2 hour infusions. After 2 to 4 weeks, the abdomen was opened, the peritoneum was recovered and submitted to protein extraction. Tissue VEGF concentration was established by ELISA (Abcam Rat VEGF ELISA Kit, ab100787) on obtained protein preparations (pg/ml).

[3] = concentration (solubility) after stirring at room temperature; format: physicochemical
Method: Concentrations of BCA in the present invention are preferably measured after 1 hour stirring at room temperature (which is preferably 20-23° C., more preferably 22° C.), particularly if the BCA is a polyphenolic compound, a metabolite of a polyphenolic compound which is obtained by metabolization in the human or animal body, a salt of a polyphenolic compound, a glycoside of a polyphenolic compound, or derivative of these compounds. So, concentrations of said compound correspond to measured solubility after 1 hour stirring at room temperature. Concentration is measured in a PTF of the invention. So, BCA can be dissolved in water. Other ingredients of a PTF, which are mentioned in this description, are preferably present. If not specifically indicated, or if not specifically indicated otherwise, the time of stirring is one hour. In some cases, other stirring times are indicated, such as 12 hours.

[4] = Example 4, PD-Solution #3, 72 hours, 3 replicates per concentration
[5] = Example 4, PD-Solution #4, 72 hours, 3 replicates per concentration
[6] = Example 2, PD-Solution #1, 48 hours, 9 dilutions, Cmax=500 μM
[7] = Example 2, PD-Solution #2, 48 hours, 9 dilutions, Cmax=500 μM

Which “improvement of cell viability of HPMC cells (resazurin to resorufin conversion)” value [1, 4] does the source give for `O=C(O)/C=C/c1ccc(O)c(O)c1` [Cafeic Acid, caffeic acid] here?
The value was “up to 32%”.

What about the “improvement of cell viability of HPMC cells (resazurin to resorufin conversion)” value [1, 5] of the same compound?
Its value is “minor”.

And the “type of dialysis solution mainly improved” value [1]?
Its value is “mainly improved Icodextrin based dialysis solutions”.

With `Oc1cc(O)c2cc(O)c(-c3cc(O)c(O)c(O)c3)[o+]c2c1` [Delphinidin] as the compound, how does the “improvement of cell viability of HPMC cells (resazurin to resorufin conversion)” value [1, 4] read?
The value was “up to 57%”.

Which results are given for `O=c1cc(-c2ccc(O)c(O)c2)oc2cc(O)cc(O)c12` [Luteolin]?
improvement of cell viability of HPMC cells (resazurin to resorufin conversion) [1, 4]: up to 56%; improvement of cell viability of HPMC cells (resazurin to resorufin conversion) [1, 5]: up to 21%; type of dialysis solution mainly improved [1]: mainly improved Icodextrin based dialysis solutions

Which “improvement of cell viability of HPMC cells (resazurin to resorufin conversion)” value [1, 4] does the source give for `Oc1cc(O)cc(/C=C/c2ccc(O)c(O)c2)c1` [Piceatannol] here?
The value was “up to 44%”.

And the “improvement of cell viability of HPMC cells (resazurin to resorufin conversion)” value [1, 5]?
The value was “up to 40%”.

Which results are given for `OC[C@H]1O[C@@H](Oc2cc(O)cc(/C=C/c3ccc(O)cc3)c2)[C@H](O)[C@@H](O)[C@@H]1O` [Piceid, resveratrol-3-O-β-mono-D-glucoside]?
effect on cell viability in control medium ([1]; Example 2, 48 hours): no significant effect; improvement of cell viability of HPMC cells (resazurin to resorufin conversion) [1, 6]: minor improvements; improvement of cell viability of HPMC cells (resazurin to resorufin conversion) [1, 7]: minor improvements; effect reducing cyto-toxicity of all three tested peritoneal dialysis solutions ([1]; 48 hours): minor effect; improvement of cell viability of HPMC cells (resazurin to resorufin conversion) [1, 4]: up to 32%; improvement of cell viability of HPMC cells (resazurin to resorufin conversion) [1, 5]: up to 17%; cell viability on Glucose based and on Icodextrin based PD-Solutions [1]: increased cell viability; improvement of viability of HPMC cells measured by ATP-level re-establishment [2]: 51%

With `COc1cc(/C=C/c2ccc(O)cc2)cc(OC)c1` [Pterostilbene] as the compound, how does the “improvement of cell viability of HPMC cells (resazurin to resorufin conversion)” value [1, 4] read?
Its value is 183%.

And the “improvement of cell viability of HPMC cells (resazurin to resorufin conversion)” value [1, 5]?
Its value is 118%.

Which “effect on cell viability in control medium” value ([1]; Example 2, 48 hours) does the source give for `Oc1ccc(/C=C/c2cc(O)cc(O)c2)cc1` [Resveratrol, trans-3,5,4′-trihydroxystilbene] here?
Its value is “no significant effect”.

And the “improvement of cell viability of HPMC cells (resazurin to resorufin conversion)” value [1, 6]?
Its value is “up to 20%”.

And the “improvement of cell viability of HPMC cells (resazurin to resorufin conversion)” value [1, 7]?
Its value is “up to 40%”.

What about the “improvement of cell viability of HPMC cells (resazurin to resorufin conversion)” value ([1]; Example 2, PD-Solution #3, 48 hours, 9 dilutions, Cmax=500 μM) of the same compound?
Its value is “up to 40%”.

What about the “effect reducing cyto-toxicity of all three tested peritoneal dialysis solutions” value ([1]; 48 hours) of the same compound?
Its value is “strong effect”.

What about the “improvement of viability of HPMC cells (resazurin to resorufin conversion)” value ([1]; PD-Solution #1, 72 hours, Cmax=500 μM) of the same compound?
Its value is “up to 84%”.

What about the “improvement of viability of HPMC cells (resazurin to resorufin conversion)” value ([1]; PD-Solution #2, 72 hours, Cmax=500 μM) of the same compound?
Its value is “up to 28%”.

What about the “improvement of viability of HPMC cells (resazurin to resorufin conversion)” value ([1]; PD-Solution #3, 72 hours, Cmax=500 μM) of the same compound?
The value was “up to 105%”.

And the “cell viability on Glucose based and on Icodextrin based PD-Solutions” value [1]?
Its value is “increased cell viability”.

What about the “VEGF concentration (pg/mL) in prot. prep., Average” value (VEGF; Sol #4 + 40 μM Resveratrol, 2 and 4 weeks combined, 10 rats) of the same compound?
The value was 60.94 pg/mL.

And the “VEGF concentration (pg/mL) in prot. prep., single animals” value (VEGF; Sol #4 + 40 μM Resveratrol, 2 weeks treatment)?
Its value is 50.21 pg/mL and 39.99 pg/mL and 70.88 pg/mL and 77.84 pg/mL and 60.12 pg/mL.

And the “VEGF concentration (pg/mL) in prot. prep., single animals” value (VEGF; Sol #4 + 40 μM Resveratrol, 4 weeks treatment)?
The value was 62.02 pg/mL and 63.71 pg/mL and 57.91 pg/mL and 68.45 pg/mL and 58.23 pg/mL.

What about the “expression of VEGF in the peritoneum of standard PDF treated rats” value (VEGF; addition to Sol #4, 2 to 4 weeks peritoneal dialysis) of the same compound?
The value was “decreases expression of VEGF”.

What about the “concentration after 12 hours stirring” value [3] of the same compound?
The value was “above 24 mg/L”.
